Data from EP4685142A1, “TRIAZINE COMPOUND AND USE THEREOF” (Chengdu Zenitar Biomedical Technology Co., Ltd., priority 2023, dated 2024).
Like-named read-outs stand apart in the source and are kept apart here.

Assays:
[1] = In vivo brain-to-plasma ratio in mice; details: for Brain / Plasma: male mice, oral 10 mg/kg; for Kp at 1 h / Kp at 6 h / concentration at 1 h / concentration at 6 h: mouse, po, 10 mg/kg; for concentration at 1 h / concentration at 6 h: plasma
Procedure: Evaluation of in vivo brain-to-plasma ratio of compound
Experimental purpose: to obtain the brain-to-plasma ratio of the compound
Experimental protocol: the brain-to-plasma ratio of the compound was investigated by monitoring the content of the compound in mouse brain and plasma.
Experimental procedure: the compound was weighed, followed by adding a small amount of DMSO and adding a sodium chloride solution for injection, to prepare a 10 mg · mL^-1 compound solution for administration. Male mice were orally administered at 10 mg · kg^-1, and whole plasma and whole brain tissue were sampled at 1 h and 6 h after administration (n=3). […] A centrifuge tube was weighed as M1, the centrifuge tube containing the whole brain tissue was weighed as M2, the centrifuge tube containing water for homogenization was weighed as M3, and the centrifuge tube after the removal of 30 µL homogenate was weighed as M4.
Standard curve range: 10-10,000 ng·mL^-1. Content of drug in brain = measured value × 0.03 × (M3−M1)/[(M2−M1)×(M3−M4)].

[2] = biological target: T1, hERG potassium ion channel (Homo sapiens, UniProt Q12809); assay: Inhibition of hERG potassium ion channel (CHO cells stably expressing hERG, Qpatch)
T1 sequence (Q12809 whole entry): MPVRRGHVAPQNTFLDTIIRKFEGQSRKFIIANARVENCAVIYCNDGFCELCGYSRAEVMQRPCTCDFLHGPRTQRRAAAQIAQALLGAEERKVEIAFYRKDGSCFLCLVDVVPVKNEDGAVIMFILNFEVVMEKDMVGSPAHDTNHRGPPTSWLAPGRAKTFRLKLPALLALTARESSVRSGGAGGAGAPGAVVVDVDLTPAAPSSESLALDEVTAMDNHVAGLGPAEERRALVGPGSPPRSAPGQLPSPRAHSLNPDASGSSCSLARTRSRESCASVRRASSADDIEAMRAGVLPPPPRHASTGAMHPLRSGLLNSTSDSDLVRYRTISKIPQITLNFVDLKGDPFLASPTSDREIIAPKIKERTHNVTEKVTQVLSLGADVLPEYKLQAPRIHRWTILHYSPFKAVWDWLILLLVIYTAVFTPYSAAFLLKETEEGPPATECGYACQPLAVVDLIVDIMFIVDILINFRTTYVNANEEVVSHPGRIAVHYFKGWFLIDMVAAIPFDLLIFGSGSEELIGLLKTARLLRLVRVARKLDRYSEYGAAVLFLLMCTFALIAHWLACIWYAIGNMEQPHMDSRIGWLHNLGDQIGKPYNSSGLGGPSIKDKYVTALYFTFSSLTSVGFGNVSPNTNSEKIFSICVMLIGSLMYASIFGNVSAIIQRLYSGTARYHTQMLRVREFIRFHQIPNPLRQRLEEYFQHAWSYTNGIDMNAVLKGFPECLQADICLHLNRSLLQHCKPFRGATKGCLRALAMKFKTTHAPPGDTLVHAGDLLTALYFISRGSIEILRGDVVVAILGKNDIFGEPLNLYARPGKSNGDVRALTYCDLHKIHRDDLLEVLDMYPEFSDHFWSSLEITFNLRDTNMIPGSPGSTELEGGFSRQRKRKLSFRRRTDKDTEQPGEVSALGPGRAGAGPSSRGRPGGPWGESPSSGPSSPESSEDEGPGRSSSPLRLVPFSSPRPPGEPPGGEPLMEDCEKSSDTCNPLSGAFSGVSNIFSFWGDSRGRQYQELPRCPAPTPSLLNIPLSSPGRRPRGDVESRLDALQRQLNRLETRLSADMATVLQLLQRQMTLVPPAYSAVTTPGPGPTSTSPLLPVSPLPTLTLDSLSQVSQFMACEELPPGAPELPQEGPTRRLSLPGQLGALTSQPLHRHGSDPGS
Procedure: (§1) Inhibition experiment of compounds on hERG potassium ion channel
(§2) Cell culture and treatment: CHO cells stably expressing hERG were cultured in cell culture flasks and incubated in a 5% CO2 incubator at 37°C. When a cell density reached 60%-80%, the cell culture medium was aspirated, washed once with PBS, and then digested with Detachin. After digestion, the grown cells were neutralized in the cell culture medium, and then centrifuged, the supernatant was aspirated, the cell culture medium was added again to resuspend the grown cells, and the cell density was adjusted to 2-5×10^6 cells/mL for later use.
(§3) Compound preparation: the compound stock solution was diluted in 100% DMSO, that is, 10 µL compound stock solution was serially diluted in 20 µL DMSO by 3 folds to obtain six concentrations. Six concentrations of the compound (4 µL for each concentration) were diluted in 396 µL extracellular fluid by 100 folds to obtain six intermediate concentrations. Six intermediate concentrations of the compound (80 µL for each concentration) were diluted in 320 µL extracellular fluid by 5 folds to obtain final concentrations to be tested. […] DMSO in a final test concentration was not more than 0.2%, and DMSO at this concentration had no effect on the hERG potassium channel. The entire dilution process for compound preparation was performed using Bravo instrument.
(§4) Electrophysiological recording process: the processes of single-celled high-impedance sealing and whole-cell mode formation were all automatically completed by Qpatch instrument, under the whole-cell recording mode, the cells were clamped at -80 mV, before 5-second + 40 mV depolarization stimulus, the cells were given 50-millisecond - 50 mV pre-voltage, followed by repolarization to -50 mV for 5 seconds, and then returning to -80 mV. The voltage stimulus was given every 15 seconds, after 2 minutes of recording, extracellular fluid was recorded for 5 min, and then a drug was administrated, started from a lowest test concentration, each test concentration of the compound was given for 2.5 minutes, after all concentrations were given consecutively, a positive control compound Cisapride (3 µM) was given. At least 3 cells were tested for each concentration (n≥3).
(§5) Data processing: data analysis and processing were performed using GraphPad Prism 5.0 and Excel software. IC50 values of the compounds were calculated by fitting with the following equation using GraphPad Prism 5 software: Y = Bottom + (Top−Bottom)/(1+10^(∧)((LogIC50−X)*HillSlope)); [formula] where X is the Log value of the test sample concentration, Y is an inhibition percentage at a corresponding concentration, and Bottom and Top are the minimum and maximum inhibition percentages, respectively.

LPS-induced mice = assay: LPS-induced mouse model, survival; type: in vivo, Balb/c mice; details: for 72h Survival rate: 1 h before 10 mg/kg LPS i.p.
[3] = biological target: T1, hERG potassium ion channel
Procedure: as §1, §2, §3, §4, §5

[4] = system: IL-1β in human PBMC cells; assay: Inhibitory activity on IL-1β in human PBMC cells (LPS + Nigericin, ELISA); type: cell-based
Procedure: 2. Determination of inhibitory activity of compounds on IL-1β in human PBMC cells
Human peripheral blood mononuclear cells (PBMCs) were taken and cultured overnight in RPMI 1640 culture medium containing 10% FBS and antibiotics before stimulation. On the second day, the culture medium was replaced with a serum-reduced culture medium, the grown cells were stimulated for 3 h with LPS at a working concentration of 1 µg/mL, stimulated for 40 min with a drug, and then stimulated for 40 min with Nigericin at a concentration of 10 µM, the cell supernatant was harvested, and the yield of IL-1β was detected by ELISA.
The experimental results are shown in Table 3: Table 3 Inhibitory effect of compounds on IL-1β in PBMC cells

NLRP3 inflammasome = biological target: T2, NLRP3 inflammasome (Homo sapiens, UniProt Q96P20); assay: Inhibitory activity of NLRP3 inflammasome in human monocytes (THP-1 cells, LPS + Nigericin, IL-1β ELISA); type: cell-based
T2 construct: host or cells: THP-1 cells
T2 sequence (Q96P20 whole entry): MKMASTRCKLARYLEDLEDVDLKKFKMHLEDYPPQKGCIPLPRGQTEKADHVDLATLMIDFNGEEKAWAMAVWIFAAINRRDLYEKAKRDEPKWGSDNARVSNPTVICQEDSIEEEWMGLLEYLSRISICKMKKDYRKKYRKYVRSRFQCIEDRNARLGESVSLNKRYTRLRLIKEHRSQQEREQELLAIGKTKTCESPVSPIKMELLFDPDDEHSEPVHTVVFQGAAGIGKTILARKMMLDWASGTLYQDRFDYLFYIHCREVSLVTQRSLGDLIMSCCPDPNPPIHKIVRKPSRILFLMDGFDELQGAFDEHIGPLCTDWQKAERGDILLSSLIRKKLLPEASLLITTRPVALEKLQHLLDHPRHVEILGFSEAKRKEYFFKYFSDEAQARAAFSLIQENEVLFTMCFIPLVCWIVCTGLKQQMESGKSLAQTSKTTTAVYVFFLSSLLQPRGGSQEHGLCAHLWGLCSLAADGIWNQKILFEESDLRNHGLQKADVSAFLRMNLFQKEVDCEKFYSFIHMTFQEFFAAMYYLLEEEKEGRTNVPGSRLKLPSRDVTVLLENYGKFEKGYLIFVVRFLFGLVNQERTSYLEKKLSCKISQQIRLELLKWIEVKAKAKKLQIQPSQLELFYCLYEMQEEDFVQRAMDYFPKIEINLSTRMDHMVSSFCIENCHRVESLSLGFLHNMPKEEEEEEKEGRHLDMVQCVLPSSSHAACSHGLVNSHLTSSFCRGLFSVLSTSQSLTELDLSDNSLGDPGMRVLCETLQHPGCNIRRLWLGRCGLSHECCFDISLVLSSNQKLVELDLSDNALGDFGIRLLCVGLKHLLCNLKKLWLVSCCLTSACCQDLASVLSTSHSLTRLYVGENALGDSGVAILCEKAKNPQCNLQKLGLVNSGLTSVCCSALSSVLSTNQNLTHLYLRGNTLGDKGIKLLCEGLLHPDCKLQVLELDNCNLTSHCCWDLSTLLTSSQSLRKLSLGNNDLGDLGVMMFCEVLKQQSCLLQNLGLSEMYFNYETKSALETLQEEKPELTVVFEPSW
Method in brief: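 THP-1 cells differentiated overnight with 10 µM PMA at 37°C and 5% CO2, then primed 3 h with 1 µg/mL LPS in Opti-MEM. Compound applied for 40 min, followed by 40 min with 10 µM nigericin. IL-1β in supernatant measured by ELISA.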

[5] = Pharmacokinetic evaluation in Balb/c mice; type: in vivo
Text: 4. Pharmacokinetic evaluation of compounds in Balb/c mice
Experimental purpose: to understand pharmacokinetic properties of the compounds.
Experimental basis: Technical Guidelines for Nonclinical Pharmacokinetic Studies of Chemical Drugs, 2014.
Experimental protocol: the pharmacokinetic properties of the compounds were investigated via intravenous administration and intragastric administration in Balb/c mice.
The blood drug concentration was quantitatively analyzed by LC-MS/MS, and pharmacokinetic parameters were calculated, such as peak concentration (Cmax), area under the concentration-time curve (AUC(0-t)), half-life (T1/2), clearance (CL), volume of distribution at steady state (Vdss), and bioavailability (F).
The results of pharmacokinetic evaluation are shown in Table 5 below: Table 5 Pharmacokinetic test results of compounds in Balb/c mice

[6] = In vivo distribution of cerebrospinal fluid and plasma; details: for Cerebrospinal fluid / Plasma: intravenous 5 mg/kg, n=1; for concentration at 0.25 h / concentration at 2 h: male, mouse, iv, 5 mg/kg
Procedure: Evaluation of in vivo distribution of cerebrospinal fluid and plasma after compound administration
Experimental procedure: the compound was weighed, followed by adding a small amount of DMSO and then adding a sodium chloride solution for injection, to prepare a 5 mg·mL^-1 compound solution for administration. […] Standard curve range: 1-1000 ng·mL^-1.

human NLRP3 protein = human NLRP3 protein (Homo sapiens, UniProt Q96P20); assay: Affinity for human NLRP3 protein (Biacore T200, CM5 chip); type: binding; details: protein immobilized on CM5 chip, 25°C
Chain of human NLRP3 protein (Q96P20 whole entry): as above

[7] = 50 mg/kg, First cage (6 mice for Compound 3, 5 mice for Compound 4)
[8] = 50 mg/kg, Second cage (6 mice for Compound 3, 5 mice for Compound 4)
[9] = THP-1 cells, PMA, LPS 1 µg/mL 3 h, drug 40 min, Nigericin 10 µM 40 min, IL-1β ELISA, read-out: IC50
[10] = male, Balb/c, mouse, in vivo, po, 5 mg/kg

## CCN1CCC[C@@H](Nc2nnc(-c3ccc4sccc4c3O)n(C)c2=O)C1 [Compound 3, (R)-6-((1-ethylpiperidin-3-yl)amino)-3-(4-hydroxybenzo[b]thiophen-5-yl)-4-methyl-1,2,4-tria zin-5(4H)-ketone]
[1]; 1 h
  Brain: 761 ng/g
  Plasma: 2082 ng/mL
[1]; 6 h
  Brain: 104 ng/g
  Plasma: 312 ng/mL
[1]; brain
  Kp at 1 h: 0.36
  Kp at 6 h: 0.33
[2]
  20 uM Inhibition ratio: 38.23%
LPS-induced mice; 25 mg/kg oral
  72h Survival rate: 90%
LPS-induced mice; 25 mg/kg, First cage (5 mice)
  survival status of mice (mice alive) 12h: 5
  survival status of mice (mice alive) 24h: 5
  survival status of mice (mice alive) 36h: 5
  survival status of mice (mice alive) 48h: 4
  survival status of mice (mice alive) 72h: 4
LPS-induced mice; 25 mg/kg, Second cage (5 mice)
  survival status of mice (mice alive) 12h: 5
  survival status of mice (mice alive) 24h: 5
  survival status of mice (mice alive) 36h: 5
  survival status of mice (mice alive) 48h: 5
  survival status of mice (mice alive) 72h: 5
LPS-induced mice; 50 mg/kg oral
  72h Survival rate: 92%
LPS-induced mice; [7]
  survival status of mice (mice alive) 12h: 6
  survival status of mice (mice alive) 24h: 6
  survival status of mice (mice alive) 36h: 6
  survival status of mice (mice alive) 48h: 6
  survival status of mice (mice alive) 72h: 6
LPS-induced mice; [8]
  survival status of mice (mice alive) 12h: 6
  survival status of mice (mice alive) 24h: 6
  survival status of mice (mice alive) 36h: 5
  survival status of mice (mice alive) 48h: 5
  survival status of mice (mice alive) 72h: 5
[3]
  inhibitory effects on the hERG potassium ion channel (conclusion in words): Conclusion: compounds 3, 4, 5, 9, 16, 17, 24, 30, 40, 41, 42, 43, 54 and others have weak inhibitory effects on the hERG potassium ion channel, having weaker inhibitory effect than the reference compound Ref-1.
[4]; Homo sapiens, PBMC
  IC50: 1.23 nM
NLRP3 inflammasome
  IC50: 2.11 nM
[5]; 5 mg/kg PO vs 5 mg/kg IV, Balb/c mice
  F: 81.05%
[5]; mouse, in vivo, 5 mg/kg, IV, Balb/c mice
  clearance: 9.67 mL/min/kg
[5]; mouse, in vivo, 5 mg/kg, IV, Balb/c mice, read-out: AUC(0-t)
  AUC(0-t): 8300 ng·h/mL
[5]; mouse, in vivo, 5 mg/kg, IV, Balb/c mice, read-out: Cmax
  Cmax: 1990 ng/mL
[5]; mouse, in vivo, 5 mg/kg, IV, Balb/c mice, read-out: T1/2 (converted)
  half-life: 5.4 h
[5]; mouse, in vivo, 5 mg/kg, IV, Balb/c mice, read-out: Vdss
  Vd: 4.51 L/kg
[5]; mouse, in vivo, 5 mg/kg, PO, Balb/c mice, read-out: AUC(0-t)
  AUC(0-t): 6730 ng·h/mL
[5]; mouse, in vivo, 5 mg/kg, PO, Balb/c mice, read-out: Cmax
  Cmax: 1010 ng/mL
[5]; mouse, in vivo, 5 mg/kg, PO, Balb/c mice, read-out: T1/2 (converted)
  half-life: 4.9 h
[6]; 0.25h
  Cerebrospinal fluid: 79 ng/g
  Plasma: 781 ng/mL
[6]; 2h
  Cerebrospinal fluid: 15 ng/g
  Plasma: 185 ng/mL

## CN1CCC[C@@H](Nc2nnc(-c3ccc4sccc4c3O)n(C)c2=O)C1 [Compound 4, (R)-3-(4-hydroxybenzo[b]thiophen-5-yl)-4-methyl-6-((1-methylpiperidin-3-yl)amino)-1,2,4-tr iazin-5(4H)-ketone]
[1]; 1 h
  Brain: 1780 ng/g
[1]; 6 h
  Brain: 335 ng/g
[1]; male, brain/plasma
  Kp at 1 h: 0.53
  Kp at 6 h: 0.25
[1]; male
  concentration at 1 h: 3340 ng/mL
  concentration at 6 h: 1370 ng/mL
[2]
  20 uM Inhibition ratio: 14.87%
LPS-induced mice; 25 mg/kg oral
  72h Survival rate: 80%
LPS-induced mice; 25 mg/kg, First cage (5 mice)
  survival status of mice (mice alive) 12h: 5
  survival status of mice (mice alive) 24h: 5
  survival status of mice (mice alive) 36h: 5
  survival status of mice (mice alive) 48h: 5
  survival status of mice (mice alive) 72h: 5
LPS-induced mice; 25 mg/kg, Second cage (5 mice)
  survival status of mice (mice alive) 12h: 5
  survival status of mice (mice alive) 24h: 5
  survival status of mice (mice alive) 36h: 4
  survival status of mice (mice alive) 48h: 4
  survival status of mice (mice alive) 72h: 3
LPS-induced mice; 50 mg/kg oral
  72h Survival rate: 100%
LPS-induced mice; [7]
  survival status of mice (mice alive) 12h: 5
  survival status of mice (mice alive) 24h: 5
  survival status of mice (mice alive) 36h: 5
  survival status of mice (mice alive) 48h: 5
  survival status of mice (mice alive) 72h: 5
LPS-induced mice; [8]
  survival status of mice (mice alive) 12h: 5
  survival status of mice (mice alive) 24h: 5
  survival status of mice (mice alive) 36h: 5
  survival status of mice (mice alive) 48h: 5
  survival status of mice (mice alive) 72h: 5
[3]; human
  inhibitory effects on the hERG potassium ion channel (conclusion in words): Conclusion: compounds 3, 4, 5, 9, 16, 17, 24, 30, 40, 41, 42, 43, 54 and others have weak inhibitory effects on the hERG potassium ion channel, having weaker inhibitory effect than the reference compound Ref-1.
[4]; human PBMC, LPS 1 µg/mL 3 h, drug 40 min, Nigericin 10 µM 40 min, IL-1β ELISA, read-out: IC50
  IC50: 1.42 nM
NLRP3 inflammasome; [9]
  IC50: 4.21 nM
[5]; [10]
  AUC(0-t): 16900 ng·h/mL
  Cmax: 4610 ng/mL
  half-life: 3 h

## CN1C[C@H](F)C[C@@H](Nc2nnc(-c3ccc4sccc4c3O)n(C)c2=O)C1 [Compound 40]
[1]; 1 h
  Brain: 1350 ng/g
[1]; 6 h
  Brain: 199 ng/g
[1]; male, brain/plasma
  Kp at 1 h: 0.19
  Kp at 6 h: 0.14
[1]; male
  concentration at 1 h: 7240 ng/mL
  concentration at 6 h: 1460 ng/mL
[2]
  20 uM Inhibition ratio: 3.48%
LPS-induced mice; 25 mg/kg oral
  72h Survival rate: 90%
LPS-induced mice; 25 mg/kg, First cage (5 mice)
  survival status of mice (mice alive) 12h: 5
  survival status of mice (mice alive) 24h: 5
  survival status of mice (mice alive) 36h: 5
  survival status of mice (mice alive) 48h: 5
  survival status of mice (mice alive) 72h: 5
LPS-induced mice; 25 mg/kg, Second cage (5 mice)
  survival status of mice (mice alive) 12h: 5
  survival status of mice (mice alive) 24h: 5
  survival status of mice (mice alive) 36h: 5
  survival status of mice (mice alive) 48h: 4
  survival status of mice (mice alive) 72h: 4
[3]; human
  inhibitory effects on the hERG potassium ion channel (conclusion in words): Conclusion: compounds 3, 4, 5, 9, 16, 17, 24, 30, 40, 41, 42, 43, 54 and others have weak inhibitory effects on the hERG potassium ion channel, having weaker inhibitory effect than the reference compound Ref-1.
NLRP3 inflammasome; [9]
  IC50: 2.97 nM
[5]; [10]
  AUC(0-t): 40400 ng·h/mL
  Cmax: 15000 ng/mL
  half-life: 2.86 h
[6]; cerebrospinal fluid
  concentration at 0.25 h: 191 ng/g
  concentration at 2 h: 0.51 ng/g
[6]; plasma
  concentration at 0.25 h: 5030 ng/mL
  concentration at 2 h: 826 ng/mL
Human NLRP3 protein
  Kd: 62.1 nM
